Measurements reported in PubChem BioAssay (NCI).
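Compound exposure: 48 hours, 5 concentrations, 96-well plates. The concentration for 50% growth inhibition is given as GI50. TGI is the concentration that stops growth completely.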

Experiments:
Experiment in all cases: DTP human tumour cell line panel, 48 h
786-0 renal = system: 786-0 renal
A498 renal = system: A498 renal
A549 NSCLC = system: A549 NSCLC
ACHN renal = system: ACHN renal
BT-549 breast = system: BT-549 breast
CAKI-1 renal = system: CAKI-1 renal
CCRF-CEM leukemia = system: CCRF-CEM leukemia
COLO 205 colon = system: COLO 205 colon
DU-145 prostate = system: DU-145 prostate
EKVX NSCLC = system: EKVX NSCLC
HCT-116 colon = system: HCT-116 colon
HCT-15 colon = system: HCT-15 colon
HL-60(TB) leukemia = system: HL-60(TB) leukemia
HOP-62 NSCLC = system: HOP-62 NSCLC
HOP-92 NSCLC = system: HOP-92 NSCLC
HS 578T breast = system: HS 578T breast
HT29 colon = system: HT29 colon
IGROV1 ovarian = system: IGROV1 ovarian
K-562 leukemia = system: K-562 leukemia
KM12 colon = system: KM12 colon
LOX IMVI melanoma = system: LOX IMVI melanoma
M14 melanoma = system: M14 melanoma
MALME-3M melanoma = system: MALME-3M melanoma
MCF7 breast = system: MCF7 breast
MDA-MB-231 breast = system: MDA-MB-231 breast
MDA-MB-435 = system: MDA-MB-435
MOLT-4 leukemia = system: MOLT-4 leukemia
NCI-H226 lung = system: NCI-H226 lung
NCI-H23 lung = system: NCI-H23 lung
NCI-H460 lung = system: NCI-H460 lung
NCI-H522 lung = system: NCI-H522 lung
NCI/ADR-RES ovarian = system: NCI/ADR-RES ovarian
OVCAR-3 ovarian = system: OVCAR-3 ovarian
OVCAR-4 ovarian = system: OVCAR-4 ovarian
OVCAR-5 ovarian = system: OVCAR-5 ovarian
OVCAR-8 ovarian = system: OVCAR-8 ovarian
PC-3 prostate = system: PC-3 prostate
RPMI-8226 leukemia = system: RPMI-8226 leukemia
RXF 393 renal = system: RXF 393 renal
SF-268 CNS = system: SF-268 CNS
SF-295 CNS = system: SF-295 CNS
SF-539 CNS = system: SF-539 CNS
SK-MEL-2 melanoma = system: SK-MEL-2 melanoma
SK-MEL-28 melanoma = system: SK-MEL-28 melanoma
SK-MEL-5 melanoma = system: SK-MEL-5 melanoma
SK-OV-3 ovarian = system: SK-OV-3 ovarian
SN12C renal = system: SN12C renal
SNB-19 CNS = system: SNB-19 CNS
SNB-75 CNS = system: SNB-75 CNS
SR leukemia = system: SR leukemia
SW-620 colon = system: SW-620 colon
T-47D breast = system: T-47D breast
TK-10 renal = system: TK-10 renal
U251 CNS = system: U251 CNS
UACC-257 melanoma = system: UACC-257 melanoma
UACC-62 melanoma = system: UACC-62 melanoma
UO-31 renal = system: UO-31 renal

Q: O=C1/C(=C\c2ccc(Cl)cc2)CCOc2c1ccc1ccccc21 was tested. Which GI50 (786-0 renal) did it give?
A: 24 µM

Q: And the TGI (786-0 renal)?
A: 55.7 µM

Q: And the GI50 (A498 renal)?
A: 36.4 µM

Q: And the TGI (A498 renal)?
A: 61.8 µM

Q: And the GI50 (A549 NSCLC)?
A: 42.8 µM

Q: What about the TGI (A549 NSCLC) of the same molecule?
A: > 100 µM

Q: And the GI50 (ACHN renal)?
A: 20.4 µM

Q: And the TGI (ACHN renal)?
A: 42.9 µM

Q: And the GI50 (BT-549 breast)?
A: 18.8 µM

Q: And the TGI (BT-549 breast)?
A: 47 µM

Q: What about the GI50 (CAKI-1 renal) of the same molecule?
A: 31.7 µM

Q: And the TGI (CAKI-1 renal)?
A: 66 µM

Q: What about the GI50 (CCRF-CEM leukemia) of the same molecule?
A: 28.8 µM

Q: And the TGI (CCRF-CEM leukemia)?
A: > 100 µM

Q: And the GI50 (COLO 205 colon)?
A: 22 µM

Q: What about the TGI (COLO 205 colon) of the same molecule?
A: 50.1 µM

Q: And the GI50 (DU-145 prostate)?
A: 19.7 µM

Q: What about the TGI (DU-145 prostate) of the same molecule?
A: 61.7 µM

Q: And the GI50 (EKVX NSCLC)?
A: 16.7 µM

Q: What about the TGI (EKVX NSCLC) of the same molecule?
A: 47.6 µM

Q: What about the GI50 (HCT-116 colon) of the same molecule?
A: 35 µM

Q: And the TGI (HCT-116 colon)?
A: > 100 µM

Q: And the GI50 (HCT-15 colon)?
A: 14.9 µM

Q: And the TGI (HCT-15 colon)?
A: 62.4 µM

Q: What about the GI50 (HL-60(TB) leukemia) of the same molecule?
A: 46.4 µM

Q: What about the TGI (HL-60(TB) leukemia) of the same molecule?
A: > 100 µM

Q: What about the GI50 (HOP-62 NSCLC) of the same molecule?
A: 25.8 µM

Q: And the TGI (HOP-62 NSCLC)?
A: 63.6 µM

Q: What about the GI50 (HOP-92 NSCLC) of the same molecule?
A: 17.8 µM

Q: And the TGI (HOP-92 NSCLC)?
A: 63.4 µM

Q: What about the GI50 (HS 578T breast) of the same molecule?
A: 46.5 µM

Q: And the TGI (HS 578T breast)?
A: > 100 µM

Q: What about the GI50 (HT29 colon) of the same molecule?
A: 22.6 µM

Q: What about the TGI (HT29 colon) of the same molecule?
A: 72 µM

Q: What about the GI50 (IGROV1 ovarian) of the same molecule?
A: 55.3 µM

Q: What about the TGI (IGROV1 ovarian) of the same molecule?
A: > 100 µM

Q: And the GI50 (K-562 leukemia)?
A: 22.5 µM

Q: What about the TGI (K-562 leukemia) of the same molecule?
A: > 100 µM

Q: And the GI50 (KM12 colon)?
A: 31.8 µM

Q: What about the TGI (KM12 colon) of the same molecule?
A: > 100 µM

Q: And the GI50 (LOX IMVI melanoma)?
A: 18.6 µM

Q: And the TGI (LOX IMVI melanoma)?
A: 42.3 µM

Q: What about the GI50 (M14 melanoma) of the same molecule?
A: 36.3 µM

Q: And the TGI (M14 melanoma)?
A: > 100 µM

Q: What about the GI50 (MALME-3M melanoma) of the same molecule?
A: 25.9 µM

Q: What about the TGI (MALME-3M melanoma) of the same molecule?
A: 57.9 µM

Q: What about the GI50 (MCF7 breast) of the same molecule?
A: 19.4 µM

Q: And the TGI (MCF7 breast)?
A: > 100 µM

Q: What about the GI50 (MDA-MB-231 breast) of the same molecule?
A: 18.6 µM

Q: And the TGI (MDA-MB-231 breast)?
A: 57 µM

Q: And the GI50 (MDA-MB-435)?
A: 23.2 µM

Q: And the TGI (MDA-MB-435)?
A: > 100 µM

Q: What about the GI50 (MOLT-4 leukemia) of the same molecule?
A: 11.7 µM

Q: What about the TGI (MOLT-4 leukemia) of the same molecule?
A: > 100 µM

Q: And the GI50 (NCI-H226 lung)?
A: 11.2 µM

Q: What about the TGI (NCI-H226 lung) of the same molecule?
A: 27.1 µM

Q: And the GI50 (NCI-H23 lung)?
A: 21.6 µM

Q: What about the TGI (NCI-H23 lung) of the same molecule?
A: 56.7 µM

Q: What about the GI50 (NCI-H460 lung) of the same molecule?
A: 21.4 µM

Q: What about the TGI (NCI-H460 lung) of the same molecule?
A: 76.4 µM

Q: And the GI50 (NCI-H522 lung)?
A: 30.1 µM

Q: What about the TGI (NCI-H522 lung) of the same molecule?
A: > 100 µM

Q: What about the GI50 (NCI/ADR-RES ovarian) of the same molecule?
A: 19.6 µM

Q: And the TGI (NCI/ADR-RES ovarian)?
A: 62.8 µM

Q: And the GI50 (OVCAR-3 ovarian)?
A: 39.4 µM

Q: And the TGI (OVCAR-3 ovarian)?
A: 87.6 µM

Q: What about the GI50 (OVCAR-4 ovarian) of the same molecule?
A: 36.7 µM

Q: What about the TGI (OVCAR-4 ovarian) of the same molecule?
A: > 100 µM

Q: And the GI50 (OVCAR-5 ovarian)?
A: 26.1 µM

Q: And the TGI (OVCAR-5 ovarian)?
A: 78.8 µM

Q: And the GI50 (OVCAR-8 ovarian)?
A: 28.1 µM

Q: And the TGI (OVCAR-8 ovarian)?
A: > 100 µM

Q: And the GI50 (PC-3 prostate)?
A: 43.5 µM

Q: And the TGI (PC-3 prostate)?
A: > 100 µM

Q: And the GI50 (RPMI-8226 leukemia)?
A: 14 µM

Q: And the TGI (RPMI-8226 leukemia)?
A: 55.5 µM

Q: What about the GI50 (RXF 393 renal) of the same molecule?
A: 22.4 µM

Q: And the TGI (RXF 393 renal)?
A: 63.6 µM

Q: And the GI50 (SF-268 CNS)?
A: 24.2 µM

Q: What about the TGI (SF-268 CNS) of the same molecule?
A: 83.9 µM

Q: What about the GI50 (SF-295 CNS) of the same molecule?
A: 33.5 µM

Q: What about the TGI (SF-295 CNS) of the same molecule?
A: > 100 µM

Q: What about the GI50 (SF-539 CNS) of the same molecule?
A: 12.2 µM

Q: What about the TGI (SF-539 CNS) of the same molecule?
A: 29.9 µM

Q: What about the GI50 (SK-MEL-2 melanoma) of the same molecule?
A: 87.5 µM

Q: What about the TGI (SK-MEL-2 melanoma) of the same molecule?
A: > 100 µM

Q: What about the GI50 (SK-MEL-28 melanoma) of the same molecule?
A: 19 µM

Q: And the TGI (SK-MEL-28 melanoma)?
A: 38.2 µM

Q: And the GI50 (SK-MEL-5 melanoma)?
A: 20.6 µM

Q: What about the TGI (SK-MEL-5 melanoma) of the same molecule?
A: 45.8 µM

Q: What about the GI50 (SK-OV-3 ovarian) of the same molecule?
A: 42.6 µM

Q: And the TGI (SK-OV-3 ovarian)?
A: > 100 µM

Q: And the GI50 (SN12C renal)?
A: 18.5 µM

Q: What about the TGI (SN12C renal) of the same molecule?
A: 49.6 µM

Q: What about the GI50 (SNB-19 CNS) of the same molecule?
A: 23.9 µM

Q: What about the TGI (SNB-19 CNS) of the same molecule?
A: 72.3 µM

Q: What about the GI50 (SNB-75 CNS) of the same molecule?
A: 34.6 µM

Q: And the TGI (SNB-75 CNS)?
A: > 100 µM

Q: What about the GI50 (SR leukemia) of the same molecule?
A: 11.9 µM

Q: What about the TGI (SR leukemia) of the same molecule?
A: > 100 µM

Q: What about the GI50 (SW-620 colon) of the same molecule?
A: 38.5 µM

Q: And the TGI (SW-620 colon)?
A: > 100 µM

Q: And the GI50 (T-47D breast)?
A: 19 µM

Q: And the TGI (T-47D breast)?
A: 42.2 µM

Q: What about the GI50 (TK-10 renal) of the same molecule?
A: 27.6 µM

Q: And the TGI (TK-10 renal)?
A: 72.3 µM

Q: And the GI50 (U251 CNS)?
A: 20.3 µM

Q: And the TGI (U251 CNS)?
A: 58.6 µM

Q: What about the GI50 (UACC-257 melanoma) of the same molecule?
A: 29.8 µM

Q: What about the TGI (UACC-257 melanoma) of the same molecule?
A: 83.3 µM

Q: And the GI50 (UACC-62 melanoma)?
A: 18.7 µM

Q: And the TGI (UACC-62 melanoma)?
A: 47 µM

Q: What about the GI50 (UO-31 renal) of the same molecule?
A: 35.4 µM

Q: And the TGI (UO-31 renal)?
A: > 100 µM
